Test results taken from the CheMixHub ionic liquid set.

Assay: xn = mol fraction of the nth substance listed

[Cl-].[Cl-].[Co+2] + CCCCCCCC[N+](CCCCCCCC)(CCCCCCCC)CCCCCCCC.[Br-] + CCCCC/C=C\C/C=C\CCCCCCCC(=O)O
296.1 K, 101.3 kPa
Conditions	viscosity [mPa·s]
x2 = 0.4, x1 = 0.2	9700
x2 = 0.4286, x1 = 0.1429	2780

CCCC[n+]1ccn(C)c1.COP(=O)([O-])OC + CCC(=O)O.CCC(=O)[O-].CC[NH+](CC)CCO
101 kPa, x2 = 0
Conditions	viscosity [mPa·s]
283.15 K	2142
328.15 K	100.9
343.15 K	52.35
373.15 K	19.25

CCOP(=O)([O-])OCC.CC[n+]1ccn(C)c1 + CCO
100 kPa
Conditions	viscosity [mPa·s]
293.15 K, x1 = 0.7003	178
293.15 K, x1 = 0.8985	379
293.15 K, x1 = 1	566
298.15 K, x1 = 0.4007	29.8
298.15 K, x1 = 0.7003	133.2
303.15 K, x1 = 0.4007	24.8
303.15 K, x1 = 0.8	139.2
303.15 K, x1 = 0.8985	197
308.15 K, x1 = 0.7003	79.6
313.15 K, x1 = 1	155
318.15 K, x1 = 0.8985	86.8
323.15 K, x1 = 0.7003	41.1
328.15 K, x1 = 0.1002	2.16
328.15 K, x1 = 0.1992	4.29
328.15 K, x1 = 0.5993	24.4
333.15 K, x1 = 0.4007	10.87
338.15 K, x1 = 0.7003	23.7

CCCCCCCCn1cc[n+](C)c1.[Br-] + O + CCCCCCCCn1cc[n+](C)c1.F[B-](F)(F)F
298.15 K, 101 kPa
Conditions	electrical conductivity [S/m]
x1 = 0.0002342, x3 = 5.406e-05	0.15
x1 = 0.001691, x3 = 0.0003242	0.8
x1 = 0.002265, x3 = 0.0004503	0.99
x1 = 0.002803, x3 = 0.0005403	1.11
x1 = 0.00343, x3 = 0.0006663	1.24
x1 = 0.004413, x3 = 0.0008642	1.37
x1 = 0.004913, x3 = 0.0009541	1.45

CCCC[n+]1ccn(C)c1.[Cl-] + CN(C)C=O
101 kPa
Conditions	electrical conductivity [S/m]	viscosity [mPa·s]
293.15 K, x2 = 0.9	–	3.4
298.15 K, x1 = 0.0172	–	0.98
298.15 K, x2 = 0.5541	0.322	41.1
298.15 K, x2 = 0.975	0.574	0.96
303.15 K, x2 = 0.5056	–	52.3
303.15 K, x2 = 0.6034	–	21.3
303.15 K, x2 = 0.7982	–	4.15
303.15 K, x2 = 0.9503	–	1.14
308.15 K, x1 = 0.0086	–	0.82
308.15 K, x2 = 0.8014	–	3.51
308.15 K, x2 = 0.8999	–	1.53
308.15 K, x2 = 0.974	–	0.94

CCCC[n+]1ccn(C)c1.O=S(=O)([O-])C(F)(F)F + Nc1ccccc1
100 kPa
Conditions	viscosity [mPa·s]
288.15 K, x2 = 0	132.7
293.15 K, x2 = 0.3002	57.6
298.15 K, x2 = 0.1995	56.1
303.15 K, x2 = 0.3002	37.3
318.15 K, x2 = 0.3996	17.67
323.15 K, x2 = 0.3002	18.28
323.15 K, x2 = 0.8999	3.12
328.15 K, x2 = 0.8999	2.76
333.15 K, x2 = 0.1995	16.23

CCCC[n+]1ccn(C)c1.O=S(=O)([O-])C(F)(F)F + CCCC[n+]1ccn(C)c1.F[P-](F)(F)(F)(F)F
100 kPa
Conditions	viscosity [mPa·s]
293.15 K, x2 = 0.006063	91.5
293.15 K, x2 = 0.15	109.5
293.15 K, x2 = 0.1999	116.6
293.15 K, x2 = 0.7	218
298.15 K, x2 = 0.08059	83.4
303.15 K, x2 = 0.08059	69.3
303.15 K, x2 = 0.1	70.8
308.15 K, x2 = 0.15	60
308.15 K, x2 = 0.1999	63.1
313.15 K, x2 = 0.1999	50.6
313.15 K, x2 = 0.5002	66.8
313.15 K, x2 = 0.7995	88.2
318.15 K, x2 = 0.15	40
318.15 K, x2 = 0.1999	41.75
318.15 K, x2 = 0.3	45.51
318.15 K, x2 = 0.8997	76.3
323.15 K, x2 = 0.3	38.24
323.15 K, x2 = 0.8997	62.3
328.15 K, x2 = 0.15	29.81
328.15 K, x2 = 0.1999	30.97

CCCCCCCCCCCCCCCC[n+]1ccccc1.O=C([O-])c1ccccc1O + C[C@H](N)C(=O)O + O
electrical conductivity [S/m], 101 kPa
Conditions	293.15 K	298.15 K	303.15 K	308.15 K	313.15 K
x2 = 0.0009002, x1 = 5.4e-07	0.00045	0.00051	0.000575	0.000646	0.000726
x2 = 0.0009002, x1 = 1.09e-06	0.000683	0.000777	0.000872	0.000975	0.00108
x2 = 0.0009002, x1 = 1.63e-06	0.000904	0.00102	0.00114	0.00127	0.00141
x2 = 0.0009002, x1 = 2.17e-06	0.00109	0.00123	0.00139	0.00155	0.00172
x2 = 0.0009002, x1 = 2.53e-06	–	–	–	0.00181	0.002
x2 = 0.0009002, x1 = 2.71e-06	0.00125	0.00144	0.00162	–	–
x2 = 0.0009002, x1 = 3.07e-06	0.00137	0.00158	0.0018	0.00202	0.00228
x2 = 0.0009002, x1 = 3.62e-06	0.00148	0.0017	0.00195	0.00222	0.00249
x2 = 0.0009002, x1 = 3.98e-06	0.00159	0.00182	0.00208	0.00237	0.00267
x2 = 0.0009002, x1 = 4.52e-06	0.0017	0.00194	0.00222	0.00253	0.00286
x2 = 0.0009002, x1 = 4.88e-06	0.00181	0.00206	0.00235	0.00268	0.00303
x2 = 0.0009002, x1 = 5.43e-06	0.00191	0.00218	0.00248	0.00282	0.00319
x2 = 0.0009002, x1 = 5.79e-06	0.002	0.00228	0.0026	0.00295	0.00334
x2 = 0.0009002, x1 = 6.15e-06	0.0021	0.00239	0.00271	0.00308	0.00347
x2 = 0.0009002, x1 = 6.51e-06	0.00217	0.00247	0.0028	0.00318	0.0036
x2 = 0.0009002, x1 = 6.69e-06	0.00224	0.00255	0.00289	0.00327	0.00369
x2 = 0.001799, x1 = 3.6e-07	0.00047	0.000542	0.000625	0.000719	0.000829
x2 = 0.001799, x1 = 5.4e-07	0.000604	0.000697	0.000797	0.000911	0.00103
x2 = 0.001799, x1 = 9.1e-07	0.00073	0.000837	0.000953	0.00108	0.00123
x2 = 0.001799, x1 = 1.27e-06	0.000889	0.00102	0.00115	0.0013	0.00146
x2 = 0.001799, x1 = 1.63e-06	0.00104	0.00119	0.00134	0.00151	0.0017
x2 = 0.001799, x1 = 1.81e-06	0.00112	0.00128	0.00145	0.00163	0.00183
x2 = 0.001799, x1 = 2e-06	0.00121	0.00138	0.00156	0.00175	0.00196
x2 = 0.001799, x1 = 2.18e-06	0.00127	0.00145	0.00165	0.00186	0.00208
x2 = 0.001799, x1 = 2.36e-06	–	–	0.00177	0.00198	0.00222
x2 = 0.001799, x1 = 2.54e-06	0.00134	0.00155	–	–	–
x2 = 0.001799, x1 = 2.72e-06	0.00142	0.00164	0.00188	0.00212	0.0024
x2 = 0.001799, x1 = 3.09e-06	0.00151	0.00174	0.002	0.00229	0.0026
x2 = 0.001799, x1 = 3.63e-06	0.00161	0.00186	0.00213	0.00244	0.00276
x2 = 0.001799, x1 = 3.99e-06	0.00173	0.00198	0.00227	0.0026	0.00296
x2 = 0.001799, x1 = 4.54e-06	0.00183	0.0021	0.0024	0.00275	0.00312
x2 = 0.001799, x1 = 4.9e-06	0.00192	0.0022	0.00251	0.00287	0.00326

O=C[C@H](O)[C@@H](O)[C@H](O)[C@H](O)CO + Cn1cc[n+](CCC[n+]2ccn(C)c2)c1.[Br-].[Br-] + O
101 kPa, x2 = 0, x1 = 0.001799
Conditions	viscosity [mPa·s]
293.15 K	1.043
298.15 K	0.927
303.15 K	0.83
308.15 K	0.754
313.15 K	0.683

CCCC[N+]1(C)CCCC1.O=S(=O)([N-]S(=O)(=O)C(F)(F)F)C(F)(F)F + Cc1ccccc1
viscosity [mPa·s], 100 kPa
Conditions	x2 = 0	x2 = 0.3041	x2 = 0.3965	x2 = 0.5054	x2 = 0.6027	x2 = 0.7066
298.15 K	70.1	–	–	14.96	10.08	–
303.15 K	–	25.03	18.66	–	–	–
313.15 K	37.99	18.55	14.35	–	–	4.73

CC(C)O + CC[n+]1ccn(CCOC)c1.N#C[S-]
100 kPa, x2 = 0
Conditions	viscosity [mPa·s]
288.15 K	2.83
293.15 K	2.42
298.15 K	2.07
303.15 K	1.79
308.15 K	1.552
313.15 K	1.352
318.15 K	1.183
